Measured values from US20060173080A1, “Methods of modulating TNF using bupropion” (The Regents of the University of California, priority 2002, published 2006).
“Also recorded” adds a separate entry of the source. Counter-ions that a name gives are not always drawn.

Columns and labels:
[1] = system: TNF; settings: Altschuler and Kast 2003; cited from earlier work
[2] = system: BALB/c mice; assay: LPS-induced shock model: survival and signs of endotoxemia after lethal LPS challenge; assay type: in vivo; settings: for survival after lethal LPS challenge: mouse, in vivo, hydrochloride
Protocol: Male BALB/c mice were injected with 11, 33 or 100 mg/kg of bupropion or with placebo i.p. in saline 1 h before challenge with 600 μg of E. coli LPS (Sigma, St. Louis, Mo.) by i.p. route. Mice were sacrificed 90 min for detection of cytokines in the serum by sandwich ELISA. Values represent the means±SEM of 5 mice per group. * P<0.05.
BALB/c mice were injected intraperitoneally (i.p.) with bupropion or placebo 1 h prior to i.p. injection of LPS (600 ug/mouse).
(§1) Male, 6 weeks old BALB/c mice were used in LPS-induced shock experiments. All mice were raised and maintained at the animal facilities at the Goncalo Moniz Research Center-FIOCRUZ, and provided with rodent diet and water ad libitum. Animal numbers in experimental groups were the minimum necessary to permit statistical analysis. All animals were sacrificed under anaesthesia.
In some experiments, groups of mice received i.p. injection of propranolol (1 mg/Kg), SCH23390 (25 μg/kg) and sulpiride (25 mg/Kg) 1 h prior to injection of bupropion. […] To determine serum TNF, IL-1 beta and IL-10 levels, mice were sacrificed 90 min after injection of LPS and bled by axilar vein puncture. Levels of IFN-gamma and nitric oxide were assayed using sera of mice sacrificed 4 h after LPS injection. Platelet and leukocyte cell counts were performed using blood collected with EDTA after 4 h of LPS challenge, using an automated cell counter (ADVIA 60, Bayer).

[3] = system: nitric oxide; assay: Serum nitrite (Griess reaction) as indicator of nitric oxide production in LPS-challenged mice; assay type: in vivo, BALB/c mice; settings: bupropion i.p. 1 h before 600 μg LPS
Protocol: (§2) To study the immunomodulatory effects of bupropion we used a mouse model in which TNF production is induced by stimulation with lipopolysaccharide (LPS) (Bozza et al, The PACAP-type I receptor agonist maxadilan from sand fly saliva protects mice against lethal endotoxemia by a mechanism partially dependent on IL-10, Eur. J. Immunol. 28, 3120-3127, 1998). BALB/c mice were injected intraperitoneally (i.p.) with bupropion or placebo 1 h prior to i.p. injection of LPS (600 ug/mouse).
(§3) Male, 6 weeks old BALB/c mice were used in LPS-induced shock experiments. […]
(§4) TNF, IL-1beta, IFN-gamma and IL-10 concentrations in serum samples or in supernatants from macrophage cultures were determined by enzyme-linked immunosorbent assay (ELISA) using antibody pairs and recombinant cytokines from R&D systems (Minneapolis, Minn., USA), according to the manufacturer's instructions. After incubation with streptoavidin-peroxidase conjugate (Sigma), the reaction was developed using 3,3′, 5,5′-tetramethylbenzidine (TMB) peroxidase substrate and read at 450 nm. The serum concentration of nitrite (NO2−) was determined by the Griess reaction, as an indicator of nitric oxide production (Green et al., Analysis of nitrate nitrite and [^15N] nitrite in biological fluids. Anal. Biochem 126, 131-138, 1982). […] The absorbance of the reaction product at 540 nm was measured using an ELISA reader. […]

[4] = system: IFN-gamma; assay: Serum IFN-gamma by ELISA in LPS-challenged mice; assay type: in vivo, BALB/c mice; settings: bupropion 100 mg/kg i.p. 1 h before 600 μg LPS i.p., serum 4 h after LPS
Protocol: as §2
as §1, with “anaesthesia. […]” for “anaesthesia.”
as §4, with “reader. The NO2^− concentration was determined by using sodium nitrite as standard. Data were analyzed using Student's t test, one-way ANOVA or Newman-Keuls multiple comparison test, using Graph Pad Prism 3.0 software.” for “reader.”

[5] = system: TNF; assay: Serum TNF by ELISA in LPS-challenged mice; assay type: in vivo, BALB/c mice; settings: bupropion 100 mg/kg i.p. 1 h before 600 μg LPS i.p., serum 90 min after LPS
Protocol: as §2, §1
(§5) Groups of mice were injected intraperitoneally (i.p.) with a dose of 600 μg of LPS (from Escherichia coli serotype 0111 :B4, Sigma, St. Louis, Mo., USA) in saline (previously determined as LD 100) 1 h after injection of placebo or bupropion. In some experiments, groups of mice received i.p. injection of propranolol (1 mg/Kg), SCH23390 (25 μg/kg) and sulpiride (25 mg/Kg) 1 h prior to injection of bupropion. […]. To determine serum TNF, IL-1 beta and IL-10 levels, mice were sacrificed 90 min after injection of LPS and bled by axilar vein puncture. Levels of IFN-gamma and nitric oxide were assayed using sera of mice sacrificed 4 h after LPS injection. Platelet and leukocyte cell counts were performed using blood collected with EDTA after 4 h of LPS challenge, using an automated cell counter (ADVIA 60, Bayer).
as §4, with “reader. The NO2^− concentration was determined by using sodium nitrite as standard. Data were analyzed using Student's t test, one-way ANOVA or Newman-Keuls multiple comparison test, using Graph Pad Prism 3.0 software.” for “reader.”

[6] = system: CD patients; settings: Kast and Altschuler 2001; cited from earlier work
[7] = system: IL-10; assay: Serum IL-10 by ELISA in LPS-challenged mice; assay type: in vivo, BALB/c mice; settings: bupropion 100 mg/kg i.p. 1 h before 600 μg LPS i.p., serum 90 min after LPS, hydrochloride
Protocol: as §2, §3, §4

[8] = system: platelet and leukocyte numbers in peripheral blood; assay: Platelet and leukocyte counts in peripheral blood 4 h after LPS challenge; assay type: in vivo, BALB/c mice; settings: bupropion 100 mg/kg i.p. 1 h before LPS, hydrochloride
Protocol: FIG. 6 is a bar graph depicting normalization of platelet and leukocyte levels by bupripion treatment. Groups of BALB/c mice were injected with bupropion 100 mg/kg (Wellbutrin, Glaxo) or with placebo i.p. in saline 1 h before challenge with 600 μg of LPS (DL-100) by i.p. route. Platelet and leukocyte numbers were evaluated in peripheral blood samples collected 4 h after LPS challenge in an automated cell counter (Bayer). * P<0.05 placebo compared with normal levels; # P<0.05 bupropion compared with placebo. In a shock often platelet levels drop precipitously due to intravascular coagulation and leukocyte also fall secondary to TNF induced apoptosis. The normalization by bupropion is consistent with the other effects of bupropion in this model.
as §5, with “Levels of IFN-gamma and nitric oxide were assayed using sera of mice sacrificed 4 h after LPS injection. Platelet and leukocyte cell counts were performed using blood collected with EDTA after 4 h of LPS challenge, using an automated cell counter (ADVIA 60, Bayer).” left out

[9] = system: β-adrenergic receptor; settings: Garrcha et al. 1985; cited from earlier work
[10] = listed as bupropion hydrochloride
[11] = listed as Bupropion, hydrochloride

## CC(NC(C)(C)C)C(=O)c1cccc(Cl)c1 (racemic) [bupropion, (.±.)-1-(3-chlorophenyl)-2-[(1,1-dimethylethyl)amino]-1-propanone hydrochloride]
[1]
  circulating TNF levels: lowers
[2]; bupropion 100 mg/kg, compared with placebo
  signs of endotoxemia (diarrhea, immobility, lethargy, piloerection, shivering): milder or absent
[2]
  survival after lethal LPS challenge: protects mice
[2]; [10]
  survival after lethal LPS challenge: increased survival rates
[2]; listed as buproprion
  survival after lethal LPS challenge: significantly increased the survival time
[3]
  nitric oxide level compared with placebo: decreased with a trend toward significance
[3]; serum 4 h after LPS
  production of nitric oxide, reduction compared to placebo treated mice: about four-fold
[4]; [10]
  serum IFN-gamma level compared with placebo: decrease
[4]; hydrochloride
  serum IFN-gamma level compared with placebo: significantly reduced
[4]; [11]
  serum IFN-gamma level compared with placebo: significantly decreased
[5]; [10]
  serum TNF level compared with placebo: decrease
[5]; hydrochloride
  serum TNF level compared with placebo: lowers; also recorded: significantly reduced
[5]; [11]
  serum TNF level compared with placebo: significantly decreased
[5]; listed as buproprion, hydrochloride
  serum TNF level compared with placebo: decreased
[6]
  clinical remission of CD (published cases): clinical remission
[7]
  serum IL-10 level compared with placebo: significantly raised
[7]; listed as Bupropion
  serum IL-10 level compared with placebo: significantly increased
[8]
  leukocyte levels: higher leukocyte levels; also recorded: normalization
  platelet counts: significantly higher than placebo treated mice and similar to those of normal mice; also recorded: normalization
[9]
  compensatory β-adrenergic receptor down-regulation: does not cause
